Values of other authors in patent US20130338126A1, “Ophthalmic Suspension for Ocular Use” (Allergan, Inc., priority 2008, published 2013).

What was measured:
[1] = test system: gram-negative bacteria, including all Haemophilus influenzae isolates; details: all study visits
[2] = test system: topoisomerase II or gyrase mutations
[3] = test system: bacterial flora in the eye
[4] = test system: methicillin resistant Staphylococcus aureus, and Staphylococcus epidermidis; details: in vitro, gram-positive microorganisms
[5] = test system: Corynebacterium propinquum, Staphylococcus aureus, Staphylococcus epidermidis, Streptococcus mitis, Streptococcus pneumoniae, Haemophilus influenzae; details: both in vitro and clinically, in conjunctival infections
[6] = test system: Haemophylus influenzae clinical isolated cases; details: clinical isolates
[7] = human, in vivo
[8] = ophthalmic solution 0.3% or 0.5% w/v, 2 drops up to 8 times a day; below inferior limit of quantification, all individuals
[9] = test system: Streptococcus pneumoniae isolates; details: all study visits
[10] = test system: Streptococcus epidermidis
[11] = test system: gram-negative microorganisms; details: many gram-negative microorganisms
bacterial conjunctivitis [12] = details: day 6 of treatment
bacterial conjunctivitis [13] = details: 0.3% ophthalmic solution, treated five days
[14] = topical; p<0.005
[15] = test system: 379 isolated microorganisms; details: first day of treatment
[16] = test system: Staphylococcus aureus and Staphylococcus epidermidis
bacteria = details: in vitro

In the case of COc1c(N2CCNC(C)C2)c(F)cc2c(=O)c(C(=O)O)cn(C3CC3)c12 (centres unmarked) [gatifloxacin], the sensitivity of isolates [1] is given as “All gram-negative bacteria were also sensitive”, the “effect of mutations, compared to ofloxacin, ciprofloxacin, sparfloxacin and trovafloxacin” value [2] is given as “less affected” and the “rate of bacterial reduction in the conjunctiva” value ([3]; gatifloxacin 0.3% / levofloxacin 0.5% ophthalmic solutions, one week pre-operative) is given as 74.3%. For the same compound, the “post-operative infection (endophthalmitis)” value ([3]; one week pre-operative treatment, cataract surgery) was “None of the individuals treated develop a post-operative infection”, the “potency compared with ciprofloxacin, ofloxacin, levofloxacin and moxifloxacin” value [4] was “more powerful than other quinolones” and the “cross-resistance with aminoglycosides, macrolides and tetracycline antibiotics” value (pathogenic agents) was “No cross-resistance has been observed”. For the same compound, the “cross-resistance with some other fluoroquinolones” value (pathogenic agents; systemic gatifloxacin) was “Cross-resistance has been observed”, the “activity against most strains” value [5] was “shown to be active” and the “effectiveness relative to ofloxacin” value [6] was “two times more effective”. The “adverse events: frequency, type, intensity or relation to causes versus ofloxacin or placebo” value [7] was “no statistically significant differences”, the “action when combined with amicacin and claritromicin” value (Mycobacterium chelonae) was “synergistic action” and the “effectiveness relative to ciprofloxacin” value (Mycobacterium chelonae; p<0.001) was “more effective than ciprofloxacin”. The plasma levels [8] was under 5 ng/mL, the sensitivity of isolates [9] was “All Streptococcus pneumoniae isolates were sensitive” and the “effectiveness relative to ofloxacin” value [10] was “eight times more effective”. The “effectiveness relative to ciprofloxacin” value (mycobacterium) was “four times more effective/active”, the “activity compared to ofloxacin” value [11] was “increased activity compared to ofloxacin” and the “rates of microbiological cure” value (bacterial conjunctivitis [12]) was 83.3%. For the same compound, the “killing rate of etiological agents” value (bacterial conjunctivitis [13]) was 92%, the clinical cure rate (bacterial conjunctivitis [13]; culture-confirmed bacterial conjunctivitis) was 77% and the “action against gram-positive cocci versus ciprofloxacin” value (bacterial keratitis; p<0.001) was “significantly superior”. For the same compound, the “rate of complete ulcer healing versus ciprofloxacin” value (bacterial keratitis; patients with keratitis) was “significantly higher rate of complete ulcer healing”, the “penetration in the eye structures compared to ciprofloxacin” value [14] was “better penetration in the tissue” and the sensitiveness of isolates [15] was 95.8%. For the same compound, the bacterial resistance rates [16] was “lower for gatifloxacin than for ciprofloxacin or norfloxacin” and the bacterial resistance (bacteria) was “low”.
